Test system: MIA PaCa-2 cells
Experiment: Xenograft tumor model
Type: in vivo, Balb/c-nu mice
Procedure: MIA PaCa-2 cells (1×10 7) in 100 μl PBS were subcutaneously inoculated into 6-8 weeks old Balb/c-nu mice (Orient, Seoul, Korea) using a 1 ml syringe. After one week, the mice were divided into three groups: a control group (solvent treatment), a KN713 40 mg/kg/100 μl treatment group, and a KN713 80 mg/kg/200 μl treatment group. KN713 was administered intraperitoneally once a day (for 49 days, 6 days/week, n=7). The primary tumor size was measured weekly using a caliper, and the tumor volume was calculated using the formula V=(A×B^2)/2 (V=volume (mm^3), A=long diameter, B=short diameter). This experiment was reviewed and approved by the Institutional Animal Care and Use Committee (IACUC) of the National Cancer Center Research Institute, which was established by the International Association for Accreditation of Laboratory Animals (It was accredited by AAALAC International).

Structure (SMILES): COc1ccc(CN2CCNCC2)c(OC)c1OC [KN713, trimetazidine]
- tumor size (tumor volume) (KN713 40 mg/kg intraperitoneally once a day, column 3 (measured weekly), Control 148.59): 147.09 mm^3
- tumor size (tumor volume) (KN713 40 mg/kg intraperitoneally once a day, column 4 (measured weekly), Control 448.52): 319.40 mm^3
- tumor size (tumor volume) (KN713 40 mg/kg intraperitoneally once a day, column 5 (measured weekly), Control 748.89): 499.29 mm^3
- tumor size (tumor volume) (KN713 40 mg/kg intraperitoneally once a day, column 6 (measured weekly), Control 944.41): 593.57 mm^3
- tumor size (tumor volume) (KN713 40 mg/kg intraperitoneally once a day, column 7 (measured weekly), Control 1472.13): 790.38 mm^3
- tumor size (tumor volume) (KN713 40 mg/kg intraperitoneally once a day, column 8 (measured weekly), Control 1709.54): 965.18 mm^3
- tumor size (tumor volume) (KN713 80 mg/kg intraperitoneally once a day, column 3 (measured weekly), Control 148.59): 147.36 mm^3
- tumor size (tumor volume) (KN713 80 mg/kg intraperitoneally once a day, column 4 (measured weekly), Control 448.52): 279.36 mm^3
- tumor size (tumor volume) (KN713 80 mg/kg intraperitoneally once a day, column 5 (measured weekly), Control 748.89): 372.00 mm^3
- tumor size (tumor volume) (KN713 80 mg/kg intraperitoneally once a day, column 6 (measured weekly), Control 944.41): 420.82 mm^3
- tumor size (tumor volume) (KN713 80 mg/kg intraperitoneally once a day, column 7 (measured weekly), Control 1472.13): 589.49 mm^3
- tumor size (tumor volume) (KN713 80 mg/kg intraperitoneally once a day, column 8 (measured weekly), Control 1709.54): 555.42 mm^3
- tumor size (mouse model transplanted with MIA PaCa2, result in words): significantly suppressed
